Our source for the remaining activity, inhibition and IC50 values is publication PMC5761851, “Application of a phenotypic drug discovery strategy to identify biological and chemical starting points for inhibition of TSLP production in lung epithelial cells” (PLoS ONE, 2018).

What all share (assay): kinase selectivity panel
Holding throughout (format): biochemical

In one assay the target is T1, Hck (Homo sapiens, UniProt P08631).
T1 construct: Eurofins Pharma Discovery Services (contract assay service)
To be noted: for remaining activity at 10 µM: read-out: percentage of control activity (POC), Hck. The method, boiled down: (§1)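 IC50 values derive from 9 duplicate concentrations, run only for activities picked after an initial 10 μM duplicate screen across 125 representative kinases.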

For another assay, the target named is T2, TBK1 (Homo sapiens, UniProt Q9UHD2).
T2 construct: purchased Eurofins Pharma Discovery Services (KinaseProfiler; Cerep BioPrint panel)
T2 sequence (Q9UHD2 1-729): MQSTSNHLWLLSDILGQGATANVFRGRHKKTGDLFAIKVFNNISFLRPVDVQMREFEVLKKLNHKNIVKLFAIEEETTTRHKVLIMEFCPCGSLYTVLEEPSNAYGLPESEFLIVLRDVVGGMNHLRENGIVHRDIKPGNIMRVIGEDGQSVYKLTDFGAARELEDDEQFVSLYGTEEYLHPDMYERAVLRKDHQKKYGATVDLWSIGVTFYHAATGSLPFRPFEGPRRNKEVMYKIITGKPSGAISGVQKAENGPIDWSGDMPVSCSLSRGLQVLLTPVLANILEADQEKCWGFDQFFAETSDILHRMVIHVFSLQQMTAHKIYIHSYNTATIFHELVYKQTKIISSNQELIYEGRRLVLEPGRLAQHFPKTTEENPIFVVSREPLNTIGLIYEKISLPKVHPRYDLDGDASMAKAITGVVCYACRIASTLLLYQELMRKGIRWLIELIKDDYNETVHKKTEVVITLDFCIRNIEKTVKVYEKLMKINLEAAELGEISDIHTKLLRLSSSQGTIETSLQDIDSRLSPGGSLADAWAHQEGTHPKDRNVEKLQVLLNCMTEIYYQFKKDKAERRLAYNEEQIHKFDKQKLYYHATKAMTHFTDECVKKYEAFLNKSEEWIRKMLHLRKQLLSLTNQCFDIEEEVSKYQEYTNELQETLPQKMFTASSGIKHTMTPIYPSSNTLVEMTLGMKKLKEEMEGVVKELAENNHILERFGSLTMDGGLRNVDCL
To be noted: read-out: percentage of control activity (POC), TBK1. The method, boiled down:
as §1

The target in a further assay is T3, DRAK1 (Homo sapiens, UniProt Q9UEE5).
T3 construct: purchased Eurofins Pharma Discovery Services (KinaseProfiler; Cerep BioPrint panel)
T3 sequence (Q9UEE5 1-414): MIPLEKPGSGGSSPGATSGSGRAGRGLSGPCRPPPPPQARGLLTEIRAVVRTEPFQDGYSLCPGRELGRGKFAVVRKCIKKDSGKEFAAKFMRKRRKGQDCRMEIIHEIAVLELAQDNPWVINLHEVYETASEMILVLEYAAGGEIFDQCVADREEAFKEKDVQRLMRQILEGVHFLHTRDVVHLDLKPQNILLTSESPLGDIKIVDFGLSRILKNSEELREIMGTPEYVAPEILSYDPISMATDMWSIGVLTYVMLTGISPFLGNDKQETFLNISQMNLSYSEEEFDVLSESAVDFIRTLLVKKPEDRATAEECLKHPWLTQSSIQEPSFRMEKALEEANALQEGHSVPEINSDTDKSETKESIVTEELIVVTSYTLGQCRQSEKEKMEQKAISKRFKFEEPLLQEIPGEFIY
As to conditions: read-out: percentage of control activity (POC), DRAK1. The method, boiled down:
as §1

The target in another assay is T4, ALK (Homo sapiens, UniProt Q9UM73).
T4 construct: purchased Eurofins Pharma Discovery Services (KinaseProfiler; Cerep BioPrint panel)
To be noted: read-out: percentage of control activity (POC), ALK. The method in brief: as §1

For a further assay, the target named is T5, CDK1/cyclinB (Homo sapiens, UniProt P06493).
T5 construct: purchased Eurofins Pharma Discovery Services (KinaseProfiler; Cerep BioPrint panel)
T5 sequence (P06493 whole entry): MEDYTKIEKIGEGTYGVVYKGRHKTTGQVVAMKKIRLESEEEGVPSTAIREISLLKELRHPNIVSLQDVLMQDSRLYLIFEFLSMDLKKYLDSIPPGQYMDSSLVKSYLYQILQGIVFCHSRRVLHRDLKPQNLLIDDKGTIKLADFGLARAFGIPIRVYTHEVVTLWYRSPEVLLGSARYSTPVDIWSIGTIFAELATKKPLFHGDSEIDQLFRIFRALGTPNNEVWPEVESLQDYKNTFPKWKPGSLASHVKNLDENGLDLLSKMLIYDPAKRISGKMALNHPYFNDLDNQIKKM
T5 sequence (P14635 whole entry partner): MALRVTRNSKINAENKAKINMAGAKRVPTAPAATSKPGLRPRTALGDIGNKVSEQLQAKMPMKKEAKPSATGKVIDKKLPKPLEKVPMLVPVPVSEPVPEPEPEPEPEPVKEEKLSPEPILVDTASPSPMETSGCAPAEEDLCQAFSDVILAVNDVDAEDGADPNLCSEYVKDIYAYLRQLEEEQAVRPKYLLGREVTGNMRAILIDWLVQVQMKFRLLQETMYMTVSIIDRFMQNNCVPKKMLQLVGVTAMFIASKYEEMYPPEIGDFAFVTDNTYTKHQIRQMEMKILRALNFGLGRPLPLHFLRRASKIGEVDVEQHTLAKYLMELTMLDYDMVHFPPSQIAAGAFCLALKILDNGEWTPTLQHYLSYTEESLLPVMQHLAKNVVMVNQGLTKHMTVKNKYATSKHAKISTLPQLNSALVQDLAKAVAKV
To be noted: read-out: percentage of control activity (POC), CDK1/cyclinB. The method, boiled down:
as §1

Another assay concerns the target T6, CK2α2 (Homo sapiens, UniProt P19784).
T6 construct: purchased Eurofins Pharma Discovery Services (KinaseProfiler; Cerep BioPrint panel)
As to conditions: read-out: percentage of control activity (POC), CK2α2. The method in brief:
as §1

A further assay concerns the target T7, c-RAF (Homo sapiens, UniProt P04049).
T7 construct: purchased Eurofins Pharma Discovery Services (KinaseProfiler; Cerep BioPrint panel)
To be noted: read-out: percentage of control activity (POC), c-RAF. The method in brief: as §1

Another assay concerns the target Syk (Homo sapiens, UniProt P43405). To be noted: read-out: percentage of control activity (POC), Syk. The method, boiled down:
as §1

Another assay has as its target T8, MKK6 (Homo sapiens, UniProt P52564).
T8 construct: purchased Eurofins Pharma Discovery Services (KinaseProfiler; Cerep BioPrint panel)
T8 sequence (P52564 1-334): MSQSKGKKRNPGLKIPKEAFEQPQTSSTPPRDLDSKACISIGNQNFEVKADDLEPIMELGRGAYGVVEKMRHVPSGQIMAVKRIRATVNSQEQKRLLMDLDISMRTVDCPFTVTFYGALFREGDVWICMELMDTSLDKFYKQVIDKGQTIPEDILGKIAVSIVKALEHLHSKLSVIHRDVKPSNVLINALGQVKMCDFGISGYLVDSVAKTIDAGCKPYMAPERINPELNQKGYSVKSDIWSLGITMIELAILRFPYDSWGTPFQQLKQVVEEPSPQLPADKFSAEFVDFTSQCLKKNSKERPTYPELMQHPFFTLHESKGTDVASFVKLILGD
As to conditions: for remaining activity at 10 µM: read-out: percentage of control activity (POC), MKK6. The method, boiled down: as §1

A further assay concerns the target T9, JAK2 (Homo sapiens, UniProt O60674).
T9 construct: purchased Eurofins Pharma Discovery Services (KinaseProfiler; Cerep BioPrint panel)
As to conditions: read-out: percentage of control activity (POC), JAK2. The method in brief: as §1

Another assay concerns the target T10, ROCK-I (Homo sapiens, UniProt Q13464).
T10 construct: purchased Eurofins Pharma Discovery Services (KinaseProfiler; Cerep BioPrint panel)
As to conditions: read-out: percentage of control activity (POC), ROCK-I. The method in brief: as §1

Another assay addresses T11, CDK6/cyclinD3 (Homo sapiens, UniProt Q00534).
T11 construct: purchased Eurofins Pharma Discovery Services (KinaseProfiler; Cerep BioPrint panel)
As to conditions: read-out: percentage of control activity (POC), CDK6/cyclinD3. The method in brief:
as §1

A further assay addresses T12, SAPK4 (Homo sapiens, UniProt O15264).
T12 construct: purchased Eurofins Pharma Discovery Services (KinaseProfiler; Cerep BioPrint panel)
T12 sequence (O15264 1-365): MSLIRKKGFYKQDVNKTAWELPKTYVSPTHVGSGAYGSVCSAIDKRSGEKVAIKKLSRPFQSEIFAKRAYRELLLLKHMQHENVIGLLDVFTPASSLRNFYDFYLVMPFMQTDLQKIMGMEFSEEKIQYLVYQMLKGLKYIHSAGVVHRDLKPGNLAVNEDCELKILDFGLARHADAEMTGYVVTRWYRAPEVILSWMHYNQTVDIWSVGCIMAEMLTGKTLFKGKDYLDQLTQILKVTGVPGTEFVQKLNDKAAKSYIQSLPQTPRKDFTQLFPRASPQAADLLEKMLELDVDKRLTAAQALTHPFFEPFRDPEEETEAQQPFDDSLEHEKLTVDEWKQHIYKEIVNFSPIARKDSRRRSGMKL
To be noted: read-out: percentage of control activity (POC), SAPK4. The method, boiled down: as §1

What is called inhibition is the relative decrease from the control value, in per cent. Low readings indicate little suppression, high ones strong suppression. As a reminder, the IC50 is the concentration at which inhibition is half-maximal.

T7 sequence (P04049 whole entry): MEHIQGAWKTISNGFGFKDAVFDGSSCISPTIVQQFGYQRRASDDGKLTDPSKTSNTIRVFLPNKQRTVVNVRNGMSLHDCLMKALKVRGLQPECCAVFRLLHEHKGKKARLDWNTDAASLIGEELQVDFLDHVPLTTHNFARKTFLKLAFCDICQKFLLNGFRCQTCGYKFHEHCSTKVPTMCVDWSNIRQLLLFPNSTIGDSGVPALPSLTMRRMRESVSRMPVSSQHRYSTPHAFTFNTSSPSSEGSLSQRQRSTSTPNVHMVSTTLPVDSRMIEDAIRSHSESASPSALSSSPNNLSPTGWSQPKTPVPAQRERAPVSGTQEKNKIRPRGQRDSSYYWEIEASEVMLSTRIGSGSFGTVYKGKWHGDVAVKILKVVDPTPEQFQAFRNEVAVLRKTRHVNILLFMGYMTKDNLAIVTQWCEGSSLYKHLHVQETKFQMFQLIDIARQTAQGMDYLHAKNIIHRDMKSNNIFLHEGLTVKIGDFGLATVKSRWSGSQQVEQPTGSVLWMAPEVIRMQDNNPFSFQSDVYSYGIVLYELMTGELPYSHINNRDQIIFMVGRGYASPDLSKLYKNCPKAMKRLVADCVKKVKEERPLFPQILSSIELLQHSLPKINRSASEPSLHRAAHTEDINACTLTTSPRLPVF
T9 sequence (O60674 whole entry): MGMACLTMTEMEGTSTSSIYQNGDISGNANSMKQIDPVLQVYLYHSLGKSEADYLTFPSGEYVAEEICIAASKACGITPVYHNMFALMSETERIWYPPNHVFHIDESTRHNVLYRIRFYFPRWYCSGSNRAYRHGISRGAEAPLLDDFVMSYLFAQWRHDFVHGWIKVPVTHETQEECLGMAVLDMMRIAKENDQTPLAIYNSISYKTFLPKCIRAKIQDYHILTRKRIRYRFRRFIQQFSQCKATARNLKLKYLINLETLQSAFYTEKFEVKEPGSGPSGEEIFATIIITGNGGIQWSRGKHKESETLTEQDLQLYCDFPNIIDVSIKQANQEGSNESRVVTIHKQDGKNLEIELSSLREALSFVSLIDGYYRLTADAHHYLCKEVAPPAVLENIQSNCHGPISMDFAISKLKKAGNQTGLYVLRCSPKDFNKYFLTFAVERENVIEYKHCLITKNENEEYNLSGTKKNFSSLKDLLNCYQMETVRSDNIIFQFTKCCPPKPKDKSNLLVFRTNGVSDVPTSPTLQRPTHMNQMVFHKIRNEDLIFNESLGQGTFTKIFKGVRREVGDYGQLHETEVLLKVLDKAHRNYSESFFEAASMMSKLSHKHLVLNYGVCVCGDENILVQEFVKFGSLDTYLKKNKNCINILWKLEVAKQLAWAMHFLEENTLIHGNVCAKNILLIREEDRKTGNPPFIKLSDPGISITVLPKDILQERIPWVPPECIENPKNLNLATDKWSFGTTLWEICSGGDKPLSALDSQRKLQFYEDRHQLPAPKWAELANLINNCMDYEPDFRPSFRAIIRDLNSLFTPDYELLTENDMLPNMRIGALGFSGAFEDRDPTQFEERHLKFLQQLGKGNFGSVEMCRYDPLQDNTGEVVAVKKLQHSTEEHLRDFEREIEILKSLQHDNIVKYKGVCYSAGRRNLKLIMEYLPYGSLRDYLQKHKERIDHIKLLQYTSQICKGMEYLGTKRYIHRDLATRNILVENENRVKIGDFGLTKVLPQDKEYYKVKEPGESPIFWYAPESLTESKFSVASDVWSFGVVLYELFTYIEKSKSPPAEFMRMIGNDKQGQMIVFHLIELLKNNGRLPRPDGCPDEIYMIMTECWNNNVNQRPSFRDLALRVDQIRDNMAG
T10 sequence (Q13464 whole entry): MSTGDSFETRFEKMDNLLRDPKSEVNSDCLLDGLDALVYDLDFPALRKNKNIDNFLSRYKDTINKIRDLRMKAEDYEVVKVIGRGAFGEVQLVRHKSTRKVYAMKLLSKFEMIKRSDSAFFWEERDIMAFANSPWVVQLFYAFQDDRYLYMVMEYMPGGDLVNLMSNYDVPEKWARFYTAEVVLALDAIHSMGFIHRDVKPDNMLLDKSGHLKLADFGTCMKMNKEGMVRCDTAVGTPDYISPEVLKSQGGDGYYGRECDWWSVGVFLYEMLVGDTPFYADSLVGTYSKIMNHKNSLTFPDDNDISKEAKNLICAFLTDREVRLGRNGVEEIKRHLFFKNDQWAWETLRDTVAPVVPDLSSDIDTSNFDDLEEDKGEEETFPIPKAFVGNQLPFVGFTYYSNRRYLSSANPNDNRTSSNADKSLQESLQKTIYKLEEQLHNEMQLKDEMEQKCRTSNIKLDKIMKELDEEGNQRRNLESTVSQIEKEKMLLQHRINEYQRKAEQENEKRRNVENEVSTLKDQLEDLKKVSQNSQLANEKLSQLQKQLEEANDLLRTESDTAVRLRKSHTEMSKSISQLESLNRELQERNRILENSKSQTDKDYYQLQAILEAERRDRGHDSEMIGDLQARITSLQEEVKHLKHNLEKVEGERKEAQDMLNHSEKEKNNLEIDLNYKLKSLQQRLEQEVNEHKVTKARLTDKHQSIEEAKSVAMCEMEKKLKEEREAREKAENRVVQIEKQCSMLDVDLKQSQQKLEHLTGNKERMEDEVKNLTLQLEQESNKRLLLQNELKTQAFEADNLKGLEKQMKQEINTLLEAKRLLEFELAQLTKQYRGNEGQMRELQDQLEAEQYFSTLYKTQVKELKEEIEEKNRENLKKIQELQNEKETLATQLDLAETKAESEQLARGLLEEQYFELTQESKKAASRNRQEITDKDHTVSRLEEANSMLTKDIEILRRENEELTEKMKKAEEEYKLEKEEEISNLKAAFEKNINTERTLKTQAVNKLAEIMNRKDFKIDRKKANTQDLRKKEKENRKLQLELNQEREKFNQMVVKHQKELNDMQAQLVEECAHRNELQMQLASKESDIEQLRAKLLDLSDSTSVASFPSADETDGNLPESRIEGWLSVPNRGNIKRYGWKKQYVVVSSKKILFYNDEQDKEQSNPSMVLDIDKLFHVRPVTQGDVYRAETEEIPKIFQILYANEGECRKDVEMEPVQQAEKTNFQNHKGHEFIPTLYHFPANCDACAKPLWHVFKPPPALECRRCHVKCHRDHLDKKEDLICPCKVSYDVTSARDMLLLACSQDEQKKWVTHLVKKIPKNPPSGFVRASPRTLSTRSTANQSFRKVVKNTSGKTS
T11 sequence (Q00534 whole entry): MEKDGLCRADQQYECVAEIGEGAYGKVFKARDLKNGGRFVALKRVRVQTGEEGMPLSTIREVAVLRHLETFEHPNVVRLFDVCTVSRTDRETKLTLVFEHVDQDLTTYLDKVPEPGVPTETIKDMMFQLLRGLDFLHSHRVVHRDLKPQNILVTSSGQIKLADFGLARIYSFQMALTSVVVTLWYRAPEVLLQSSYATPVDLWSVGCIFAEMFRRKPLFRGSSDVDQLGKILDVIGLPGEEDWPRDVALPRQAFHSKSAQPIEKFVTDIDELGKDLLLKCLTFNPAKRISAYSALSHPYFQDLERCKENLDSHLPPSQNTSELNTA
T11 sequence (P30281 whole entry partner): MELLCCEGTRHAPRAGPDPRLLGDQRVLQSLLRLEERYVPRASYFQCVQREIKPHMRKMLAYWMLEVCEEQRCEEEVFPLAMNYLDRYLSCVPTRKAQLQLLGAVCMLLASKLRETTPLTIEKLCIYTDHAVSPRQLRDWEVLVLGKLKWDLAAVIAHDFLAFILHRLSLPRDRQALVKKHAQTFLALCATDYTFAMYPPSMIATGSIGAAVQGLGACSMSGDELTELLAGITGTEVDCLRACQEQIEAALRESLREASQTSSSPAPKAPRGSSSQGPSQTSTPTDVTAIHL
T6 sequence (P19784 whole entry): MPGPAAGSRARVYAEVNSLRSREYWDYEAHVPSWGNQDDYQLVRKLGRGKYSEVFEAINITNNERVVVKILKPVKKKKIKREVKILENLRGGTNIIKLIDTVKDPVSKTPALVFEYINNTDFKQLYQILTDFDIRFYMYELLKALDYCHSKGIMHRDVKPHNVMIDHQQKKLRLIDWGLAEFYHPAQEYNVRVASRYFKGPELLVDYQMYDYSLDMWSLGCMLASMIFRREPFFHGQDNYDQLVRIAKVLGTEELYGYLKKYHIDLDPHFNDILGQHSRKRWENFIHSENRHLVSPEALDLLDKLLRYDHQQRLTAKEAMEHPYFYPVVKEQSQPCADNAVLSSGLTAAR

With `CC(C)(C)N1CCC(c2cc(-c3ccc(F)cc3Cl)c3cc[n+]([O-])c(-c4c(Cl)cccc4Cl)c3n2)CC1` [compound 2], the remaining activity at 10 µM was determined as 84% at Hck (10 μM); 108% at TBK1; 99% on DRAK1; 89% at ALK; 100% on CDK1/cyclinB; 105% on CK2α2. Further, the remaining activity at 10 µM on c-RAF worked out at 112%; on Syk, 95%; at MKK6, 0%; at JAK2, 105%; at ROCK-I, 97%; on CDK6/cyclinD3, 102%. Also, at SAPK4, the remaining activity at 10 µM was determined as 96%. On MKK6, this compound returned an inhibition at 10 µM of around 100%.
As for `Cc1ccc(C(=O)NCC2CC2)cc1-c1ccc2c(c1)NC(=O)C21CCCC1` [compound 3], the remaining activity at 10 µM on Hck (10 μM) turned out to be 87%; at TBK1 it was 92%; on DRAK1 it was 98%; at ALK it was 77%; on CDK1/cyclinB it was 96%; on CK2α2, 108%. Besides, the remaining activity at 10 µM on c-RAF is 54%; on Syk it was 101%; at MKK6 it was -3%; on JAK2 it was 108%; at ROCK-I it was 98%; at CDK6/cyclinD3, 97%. Further, the remaining activity at 10 µM at SAPK4 amounted to 94%. At MKK6, this compound gave an inhibition at 10 µM of around 100%.
On Hck (10 μM), `Cn1cc(-c2cccc(-c3nc(C(=O)NC4C5CC6CC4CC(O)(C6)C5)c(N)nc3N)c2)cn1` (stereo not shown) [compound 4] yielded an inhibition at 10 µM of 53%. Also, the remaining activity at 10 µM on Hck (10 μM) worked out at 47%; on TBK1, 90%; at DRAK1, 89%; on ALK, 64%; at CDK1/cyclinB, 64%; on CK2α2, 105%. Besides, the remaining activity at 10 µM on c-RAF is 52%; on Syk it was 66%; on MKK6, 80%; on JAK2, 88%; on ROCK-I, 91%; at CDK6/cyclinD3, 93%. Moreover, at SAPK4, the remaining activity at 10 µM worked out at 88%. Moreover, the IC50 at Hck (biochemical dose response, duplicate, read-out: Inhibition of indicated activity (IC50, μM): Hck) came out at 3.58 µM.
As for `CS(=O)(=O)N1CCN(c2ccc(Nc3ncc(C(N)=O)c(NC4CC4)n3)cc2)CC1` [compound 5], the remaining activity at 10 µM on Hck (10 μM) was 7%; at TBK1, -1%; on DRAK1 it was 1%; on ALK, 62%; on CDK1/cyclinB, 71%; on CK2α2 it was 43%. The remaining activity at 10 µM at c-RAF was 10%; at Syk, 0%; at MKK6, 32%; at JAK2, -3%; at ROCK-I, 43%; on CDK6/cyclinD3, 23%. Also, at SAPK4, the remaining activity at 10 µM amounted to 32%.
Take `COc1c(NC(=O)c2ccc(C)c(-c3nnc4c(NCC(C)(C)C)nccn34)c2)cc(C(C)(C)C)cc1NS(C)(=O)=O` [compound 7, reference compound]: the remaining activity at 10 µM came to 84% at Hck (10 μM); 103% at TBK1; 144% at DRAK1; 146% on ALK; 101% at CDK1/cyclinB; 114% on CK2α2. Also, the remaining activity at 10 µM at c-RAF was 61%; on Syk, 86%; on MKK6 it was -3%; at JAK2, 104%; at ROCK-I, 108%; on CDK6/cyclinD3, 100%. Besides, at SAPK4, the remaining activity at 10 µM came to 81%. This compound also had an inhibition at 10 µM against MKK6 of around 100%.
